In patent US11312722B2, “Hsp90 inhibitors and uses thereof” (TRUSTEES OF BOSTON UNIVERSITY, priority 2019, dated 2022):
Like-named read-outs stand apart in the source and are kept apart here.

Experiments:
[1] = biological target: Hsp90 (C. albicans whole cell lysate) (Candida albicans (strain SC5314 / ATCC MYA-2876) (Yeast), UniProt P46598); assay: biochemical; type: binding; conditions: for C. alb Active (biochemical): Yes/No call
Experimental: All analogs were assessed for Hsp90 binding affinity using a fluorescence polarization (FP)-based equilibrium competition assay in fungal and human whole cell lysates. […] Using lysates, the relative potency and selectivity for fungal Hsp90 was measured versus the entire ensemble of human Hsp90 isoforms in microplate format using small amounts of test materials. […] Thermal shift assays were performed under saturating ligand conditions, i.e. equimolar concentrations (10 μM) of protein and ligand. As a result, they provided qualitative evidence of target binding, but not a quantitative measurement of ligand affinity. For quantitation, a ligand dissociation constant (Ki) for key compounds was also determined using purified NBDs in FP assays and KD measurements were made by surface plasmon resonance (SPR) using a Biacore instrument. Finally, all analogs were assessed for whole cell antifungal activity against the pathogens C. albicans and C. neoformans.
FP assays. Whole cell lysates were prepared for FP assays as described previously. Total protein concentration of human and yeast lysates was determined by Bradford assay. […] Serial dilutions of test Hsp90 inhibitors were then assayed under these same conditions to monitor loss of fluorescence polarization as an indicator of probe displacement from Hsp90. […] Titrations of test compound in 25 μL of binding buffer (supplemented with 0.1 mg/mL bovine gamma globulin), were mixed with an equal volume of freshly prepared whole-cell lysate spiked with Cy3-GdA (0.1 nM). Plates were incubated at room temperature for 4.5 h to achieve equilibrium binding for the geldanamycin-based probe. […] Non-linear 4-parameter curve fitting of raw displacement data was performed in GraphPad Prism 5.0 to determine EC50 values as a measure of relative Hsp90-binding affinity. Results were normalized to the value determined for GdA in lysate of each cell type.
Statistical methods. […] In calculating the error of selectivity determinations, the fractional error of measurements in each species was summed to yield a composite error for the derived ratio.

[2] = test system: C. neoformans (Strain H99); assay: Antifungal sensitivity testing (MIC), C. neoformans H99; type: cell-based; conditions: for MIC80 / MIC90: Cryptococcus neoformans; for MIC80: read-out: C. neo MIC80; for MIC90: read-out: C. neo MIC90
Experimental: Color scale bar: no growth inhibition (green) to complete inhibition (black). Each shaded box represents the mean of technical duplicates. The experiment was repeated as an independent biological replicate to confirm results.
Minimum inhibitory concentration (MIC) value for compounds against C. neoformans (Strain H99) was determined in dose-response format, in technical duplicate. Experiments were conducted in RPMI medium at 37° C. for 48 h. Relative viable cell number was measured by standard dye reduction (resazurin) assay.
Yeast strains and culture conditions. Strains used in this study were C. albicans CaCi2 (clinical isolate 2), [58] SC5314, [59] and C. neoformans H99. […] Active cultures were maintained on solid (2% agar) yeast extract peptone (YPD, 1% yeast extract, 2% bactopeptone, 2% glucose) at 4° C. for no more than one month.
Antifungal sensitivity testing. […] Each compound was tested in duplicate in at least two independent experiments. […] Plates were photographed after 24 h of incubation at 30° C.

[3] = FP competition, whole cell lysate, duplicate, screening experiment, read-out: C. albicans EC50

C. alb Active (biochemical) [1] | EC50 ([1]; read-out: C. alb EC50) [µM] | MIC80 [2] [µM] | MIC90 [2] [µM] | SMILES | other results
Yes | 0.904 | – | – | Cc1ccccc1-c1cc(Nc2cc(O)cc(O)c2C(=O)N2Cc3ccc(F)cc3C2)n(C)n1 [ACSM01135] | –
Yes | 1.68 | – | – | Cc1ccc(F)c(-c2cc(Nc3cc(O)cc(O)c3C(=O)N3Cc4ccccc4C3)n(C)n2)c1 [ACSM01268] | –
Yes | 2.21 | – | – | Cn1nc(-c2cccc(F)c2F)cc1Nc1cc(O)cc(O)c1C(=O)N1Cc2ccccc2C1 [ACSM01269] | –
Yes | 1.12 | – | – | Cn1nc(-c2cc(F)ccc2F)cc1Nc1cc(O)cc(O)c1C(=O)N1Cc2ccccc2C1 [ACSM01270] | –
Yes | 5.34 | – | – | COc1ccccc1-c1cc(Nc2cc(O)cc(O)c2C(=O)N2CC[C@H](N)C2)n(C)n1 [ACSM01271] | C. neo MIC80 [2]: >25 µM; C. neo MIC90 [2]: >25 µM
Yes | 6.2 | – | – | Cc1cccc(-c2cc(Nc3cc(O)cc(O)c3C(=O)N3Cc4ccccc4C3)n(C)n2)c1C [ACSM01272] | –
Yes | – | – | – | Cc1cccc(-c2cc(Nc3cc(O)cc(O)c3C(=O)N3Cc4ccccc4C3)n(C)n2)c1F [ACSM01273] | –
Yes | 1.25 | – | – | Cn1nc(-c2cccc(F)c2)cc1Nc1cc(O)cc(O)c1C(=O)N1Cc2ccccc2C1 [ACSM01345] | –
Yes | 4.17 | – | – | Cn1nc(-c2cccc(Cl)c2)cc1Nc1cc(O)cc(O)c1C(=O)N1Cc2ccccc2C1 [ACSM01362] | –

Continued, molecule first:

SMILES | C. alb Active (biochemical) [1] | EC50 ([1]; read-out: C. alb EC50) [µM] | MIC80 [2] [µM] | MIC90 [2] [µM] | other results
COc1cccc(-c2cc(Nc3cc(O)cc(O)c3C(=O)N3Cc4cccc(F)c4C3)n(C)n2)c1 [ACSM01130] | Yes | 5.82 | – | – | C. neo MIC80 [2]: >50 µM; C. neo MIC90 [2]: >50 µM
COc1ccc(Cn2nc(C)cc2Nc2cc(O)cc(O)c2C(=O)N(C)CC2CC2)cc1 [Compound 30, N-(Cyclopropylmethyl)-2,4-dihydroxy-6-((1-((4-methoxyphenyl)methyl)-3-methyl-1H-pyrazol-5-yl)amino)-N-methylbenzamide] | No | > 9 | > 25 | > 25 | EC50 [1, 3]: > 9 µM
COc1ccc(Cn2nc(C)cc2Nc2cc(O)cc(O)c2C(=O)N(C)Cc2ccccc2)cc1 [Compound 37, N-Benzyl-2,4-dihydroxy-6-((1-((4-methoxyphenyl)methyl)-3-methyl-1H-pyrazol-5-yl)amino)-N-methylbenzamide] | – | – | – | – | EC50 [1, 3]: > 6 µM
Cn1nccc1Nc1cc(O)cc(O)c1C(=O)N1Cc2cn[nH]c2C1 [Compound 58, 5-((1-Methyl-1H-pyrazol-5-yl)amino)-4-(1H,4H,5H,6H-pyrrolo[3,4-c]pyrazole-5-carbonyl)benzene-1,3-diol] | Yes | – | > 25 | > 25 | –
Cn1nc(-c2ccccc2)cc1Nc1cc(O)cc(O)c1C(=O)N1Cc2cccnc2C1 [Compound 92, 5-((1-Methyl-3-phenyl-1H-pyrazol-5-yl)amino)-4-(5H,6H,7H-pyrrolo[3,4-b]pyridine-6-carbonyl)benzene-1,3-diol] | Yes | – | > 25 | > 25 | –
Cn1nc(-c2ccccc2)cc1Nc1cc(O)cc(O)c1C(=O)N1Cc2cn[nH]c2C1 [Compound 93, 5-((1-Methyl-3-phenyl-1H-pyrazol-5-yl)amino)-4-(1H,4H,5H,6H-pyrrolo[3,4-c]pyrazole-5-carbonyl)benzene-1,3-diol] | Yes | – | > 25 | > 25 | –
CC(C)(C)n1nc(-c2ccccc2)cc1Nc1cc(O)cc(O)c1C(=O)N1Cc2cccnc2C1 [Compound 94, 5-((1-tert-Butyl-3-phenyl-1H-pyrazol-5-yl)amino)-4-(5H,6H,7H-pyrrolo[3,4-b]pyridine-6-carbonyl)benzene-1,3-diol] | Yes | – | > 25 | > 25 | –
CC(C)(C)n1nc(-c2ccccc2)cc1Nc1cc(O)cc(O)c1C(=O)N1Cc2cn[nH]c2C1 [Compound 95, 5-((1-tert-Butyl-3-phenyl-1H-pyrazol-5-yl)amino)-4-(1H,4H,5H,6H-pyrrolo[3,4-c]pyrazole-5-carbonyl)benzene-1,3-diol] | Yes | – | > 25 | > 25 | –
Cn1nc(C2CCCCC2)cc1Nc1cc(O)cc(O)c1C(=O)N1Cc2cccnc2C1 [Compound 104, 5-((3-Cyclohexyl-1-methyl-1H-pyrazol-5-yl)amino)-4-(5H,6H,7H-pyrrolo[3,4-b]pyridine-6-carbonyl)benzene-1,3-diol] | Yes | – | > 25 | > 25 | –
Cc1ccccc1-c1cc(Nc2cc(O)cc(O)c2C(=O)N2Cc3cccnc3C2)n(C)n1 [Compound 107, 5-((1-Methyl-3-(2-methylphenyl)-1H-pyrazol-5-yl)amino)-4-(5H,6H,7H-pyrrolo[3,4-b]pyridine-6-carbonyl)benzene-1,3-diol] | Yes | – | > 25 | > 25 | –
Cc1ccccc1-c1cc(Nc2cc(O)cc(O)c2C(=O)N2Cc3cn[nH]c3C2)n(C)n1 [Compound 108, 5-((1-Methyl-3-(2-methylphenyl)-1H-pyrazol-5-yl)amino)-4-(1H,4H,5H,6H-pyrrolo[3,4-c]pyrazole-5-carbonyl)benzene-1,3-diol] | Yes | – | > 25 | > 25 | –
Cc1cccc(-c2cc(Nc3cc(O)cc(O)c3C(=O)N3Cc4ccccc4C3)n(C)n2)c1 [Compound 109, 4-(2,3-Dihydro-1H-isoindole-2-carbonyl)-5-((1-methyl-3-(3-methylphenyl)-1H-pyrazol-5-yl)amino)benzene-1,3-diol] | Yes | – | > 25 | > 25 | –
Cc1cccc(-c2cc(Nc3cc(O)cc(O)c3C(=O)N3Cc4cccnc4C3)n(C)n2)c1 [Compound 110, 5-((1-Methyl-3-(3-methylphenyl)-1H-pyrazol-5-yl)amino)-4-(5H,6H,7H-pyrrolo[3,4-b]pyridine-6-carbonyl)benzene-1,3-diol] | Yes | – | > 25 | > 25 | –
Cn1nc(-c2cccc(C(F)(F)F)c2)cc1Nc1cc(O)cc(O)c1C(=O)N1Cc2ccccc2C1 [Compound 115, 4-(2,3-Dihydro-1H-isoindole-2-carbonyl)-5-((1-methyl-3-(3-(trifluoromethyl)phenyl)-1H-pyrazol-5-yl)amino)benzene-1,3-diol] | Yes | – | > 25 | > 25 | –
Cn1nc(-c2cccc(C(F)(F)F)c2)cc1Nc1cc(O)cc(O)c1C(=O)N1Cc2cccnc2C1 [Compound 116, 5-((1-Methyl-3-(3-(trifluoromethyl)phenyl)-1H-pyrazol-5-yl)amino)-4-(5H,6H,7H-pyrrolo[3,4-b]pyridine-6-carbonyl)benzene-1,3-diol] | Yes | – | > 25 | > 25 | –
Cn1nc(-c2cccc(C(F)(F)F)c2)cc1Nc1cc(O)cc(O)c1C(=O)N1Cc2cn[nH]c2C1 [Compound 117, 5-((1-Methyl-3-(3-(trifluoromethyl)phenyl)-1H-pyrazol-5-yl)amino)-4-(1H,4H,5H,6H-pyrrolo[3,4-c]pyrazole-5-carbonyl)benzene-1,3-diol] | Yes | – | > 25 | > 25 | –
Cc1ccc(-c2cc(Nc3cc(O)cc(O)c3C(=O)N3Cc4ccccc4C3)n(C)n2)cc1 [Compound 118, 4-(2,3-Dihydro-1H-isoindole-2-carbonyl)-5-((1-methyl-3-(4-methylphenyl)-1H-pyrazol-5-yl)amino)benzene-1,3-diol] | Yes | – | > 25 | > 25 | –
COc1ccc(-c2cc(Nc3cc(O)cc(O)c3C(=O)N3Cc4ccccc4C3)n(C)n2)cc1 [Compound 121, 4-(2,3-Dihydro-1H-isoindole-2-carbonyl)-5-((3-(4-methoxyphenyl)-1-methyl-1H-pyrazol-5-yl)amino)benzene-1,3-diol] | – | – | > 25 | > 25 | C. neo Active (cells) ([2]; Yes/No call): No
